Results as given in ChEMBL document CHEMBL4765407, “Design, synthesis and high antitumor potential of new unsymmetrical bisacridine derivatives towards human solid tumors, specifically pancreatic cancers and their unique ability to stabilize DNA G-quadruplexes” (Eur J Med Chem, 2020).

Key:
[1] = tested on: DU-145; assay: Cytotoxicity against human DU-145 cells assessed as reduction in cell viability measured after 72 hrs by SRB assay; assay type: functional, cell-based; conditions: DU-145, 72 h
[2] = tested on: PC-3; assay: Cytotoxicity against human PC-3 cells assessed as reduction in cell viability measured after 72 hrs by SRB assay; assay type: functional, cell-based; conditions: PC-3, 72 h
[3] = tested on: NCI-H460; assay: Cytotoxicity against human NCI-H460 cells assessed as reduction in cell viability measured after 72 hrs by SRB assay; assay type: functional, cell-based; conditions: NCI-H460, 72 h
[4] = tested on: HCT-116; assay: Cytotoxicity against human HCT-116 cells assessed as reduction in cell viability measured after 72 hrs by SRB assay; assay type: functional, cell-based; conditions: HCT-116, 72 h
[5] = tested on: UMUC3; assay: Cytotoxicity against human UMUC3 cells assessed as reduction in cell viability measured after 72 hrs by SRB assay; assay type: functional, cell-based; conditions: UMUC3, 72 h
[6] = tested on: PANC-1; assay: Cytotoxicity against human PANC-1 cells assessed as reduction in cell viability measured after 72 hrs by SRB assay; assay type: functional, cell-based; conditions: PANC-1, 72 h
[7] = tested on: MIA PaCa-2; assay: Cytotoxicity against human MIA PaCa-2 cells assessed as reduction in cell viability measured after 72 hrs by SRB assay; assay type: functional, cell-based; conditions: MIA PaCa-2, 72 h
[8] = tested on: W256; assay: Antitumour activity against Walker 256 adenocarcinoma cells implanted in Wistar rat assessed as increase in animal survival rate by measuring T/C ratio at 20 mg/kg, ip qd for 3 days administered on day 3,4,5 after tumor cell transplantation; assay type: functional; conditions: time 3 day
[9] = tested on: NCI-H460; assay: Antitumour activity against human NCI-H460 cells xenografted in Crl:Nu-Foxnl nu mouse assessed as inhibition of tumour growth at total effective dose of 60 mg/kg, iv measured on day 17; assay type: functional; conditions: 408 h, time 17 day, read-out: TGI
[10] = tested on: PANC-1; assay: Antitumour activity against human PANC-1 cells xenografted in Crl:Nu-Foxnl nu mouse assessed as inhibition of tumour growth at total effective dose of 30 mg/kg, iv measured on day 45; assay type: functional; conditions: PANC-1, iv, 1080 h, time 45 day, read-out: TGI
[11] = tested on: PANC-1; assay: Antitumour activity against human PANC-1 cells xenografted in Crl:Nu-Foxnl nu mouse assessed as inhibition of tumour growth at total effective dose of 10 mg/kg, iv measured on day 37; assay type: functional; conditions: PANC-1, iv, 888 h, time 37 day, read-out: TGI
[12] = tested on: PC-3; assay: Antitumour activity against human PC-3 cells xenografted in Crl:Nu-Foxnl nu mouse assessed as inhibition of tumour growth at total effective dose of 8 mg/kg, iv measured on day 39; assay type: functional; conditions: PC-3, iv, 936 h, time 39 day, read-out: TGI
[13] = tested on: Quadruplex DNA; assay: Stabilization of 5'-FAM/3'-TAMRA labeled c-Myc promoter G4 quadruplex DNA FPu18 (unknown origin) assessed as change in melting temperature at 10 microM measured after 15 mins by FRET assay; assay type: nucleic-acid assay
[14] = tested on: Quadruplex DNA; assay: Stabilization of 5'-FAM/3'-TAMRA labeled telomeric G4 quadruplex DNA F21T (unknown origin) assessed as change in melting temperature at 10 microM measured after 15 mins by FRET assay; assay type: nucleic-acid assay
[15] = tested on: Quadruplex DNA; assay: Stabilization of 5'-FAM/3'-TAMRA labeled K-Ras G4 quadruplex DNA (unknown origin) assessed as change in melting temperature at 10 microM measured after 15 mins by FRET assay; assay type: nucleic-acid assay
[16] = Stabilization of ds 5'-FAM-d(TATAGCTATA-HEG-TATAGCTATA)-TAMRA-3' (unknown origin) assessed as change in melting temperature at 10 microM measured after 15 mins by FRET assay; conditions: Homo sapiens
[17] = tested on: HT-29; assay: Cytotoxicity against human HT-29 cells assessed as reduction in cell viability measured after 72 hrs by SRB assay; assay type: functional, cell-based; conditions: HT-29, 72 h
[18] = tested on: W256; assay: Antitumour activity against Walker 256 adenocarcinoma cells implanted in Wistar rat assessed as increase in animal survival rate by measuring T/C ratio at 5 mg/kg, ip qd for 3 days administered on day 3,4,5 after tumor cell transplantation; assay type: functional; conditions: time 3 day
[19] = tested on: HCT-116; assay: Antitumour activity against human HCT-116 cells xenografted in Crl:Nu-Foxnl nu mouse assessed as inhibition of tumour growth at total effective dose of 100 mg/kg, ip measured on day 23; assay type: functional; conditions: HCT-116, ip, 552 h, time 23 day, read-out: TGI
[20] = tested on: LNCaP; assay: Cytotoxicity against human LNCaP cells assessed as reduction in cell viability measured after 72 hrs by SRB assay; assay type: functional, cell-based
[21] = tested on: MDA-MB-231; assay: Cytotoxicity against human MDA-MB-231 cells assessed as reduction in cell viability measured after 72 hrs by SRB assay; assay type: functional, cell-based; conditions: MDA-MB-231, 72 h
[22] = tested on: W256; assay: Antitumour activity against Walker 256 adenocarcinoma cells implanted in Wistar rat assessed as increase in animal survival rate by measuring T/C ratio at 4 mg/kg, ip qd for 3 days administered on day 3,4,5 after tumor cell transplantation; assay type: functional; conditions: time 3 day
[23] = tested on: DU-145; assay: Antitumour activity against human DU-145 cells xenografted in Crl:Nu-Foxnl nu mouse assessed as inhibition of tumour growth at total effective dose of 40 mg/kg, ip measured on day 35; assay type: functional; conditions: DU-145, ip, 840 h, time 35 day, read-out: TGI
[24] = tested on: PANC-1; assay: Antitumour activity against human PANC-1 cells xenografted in Crl:Nu-Foxnl nu mouse assessed as inhibition of tumour growth at total effective dose of 16 mg/kg, iv measured on day 37; assay type: functional; conditions: PANC-1, iv, 888 h, time 37 day, read-out: TGI
[25] = tested on: UMUC3; assay: Antitumour activity against human UMUC3 cells xenografted in Crl:Nu-Foxnl nu mouse assessed as inhibition of tumour growth at total effective dose of 14 mg/kg, iv measured on day 23; assay type: functional; conditions: 552 h, time 23 day, read-out: TGI
[26] = tested on: W256; assay: Antitumour activity against Walker 256 adenocarcinoma cells implanted in Wistar rat assessed as increase in animal survival rate by measuring T/C ratio at 6.25 mg/kg, ip qd for 3 days administered on day 3,4,5 after tumor cell transplantation; assay type: functional; conditions: time 3 day
[27] = tested on: DU-145; assay: Antitumour activity against human DU-145 cells xenografted in Crl:Nu-Foxnl nu mouse assessed as inhibition of tumour growth at total effective dose of 48 mg/kg, ip measured on day 35; assay type: functional; conditions: DU-145, ip, 840 h, time 35 day, read-out: TGI
[28] = tested on: NCI-H460; assay: Antitumour activity against human NCI-H460 cells xenografted in Crl:Nu-Foxnl nu mouse assessed as inhibition of tumour growth at total effective dose of 30 mg/kg, ip measured on day 14; assay type: functional; conditions: 336 h, time 14 day, read-out: TGI
[29] = tested on: MCF7; assay: Cytotoxicity against human MCF7 cells assessed as reduction in cell viability measured after 72 hrs by SRB assay; assay type: functional, cell-based; conditions: MCF7, 72 h
[30] = tested on: BXPC-3; assay: Cytotoxicity against human BXPC-3 cells assessed as reduction in cell viability measured after 72 hrs by SRB assay; assay type: functional, cell-based; conditions: BXPC-3, 72 h
[31] = tested on: ASPC1; assay: Cytotoxicity against human ASPC1 cells assessed as reduction in cell viability measured after 72 hrs by SRB assay; assay type: functional, cell-based; conditions: ASPC1, 72 h
[32] = tested on: W256; assay: Antitumour activity against Walker 256 adenocarcinoma cells implanted in Wistar rat assessed as increase in animal survival rate by measuring T/C ratio at 2 mg/kg, ip qd for 3 days administered on day 3,4,5 after tumor cell transplantation; assay type: functional; conditions: time 3 day
[33] = tested on: DU-145; assay: Antitumour activity against human DU-145 cells xenografted in Crl:Nu-Foxnl nu mouse assessed as inhibition of tumour growth at total effective dose of 32 mg/kg, iv measured on day 63; assay type: functional; conditions: DU-145, iv, 1512 h, time 63 day, read-out: TGI
[34] = tested on: DU-145; assay: Antitumour activity against human DU-145 cells xenografted in Crl:Nu-Foxnl nu mouse assessed as inhibition of tumour growth at total effective dose of 8 mg/kg, iv measured on day 33; assay type: functional; conditions: DU-145, iv, 792 h, time 33 day, read-out: TGI
[35] = tested on: NCI-H460; assay: Antitumour activity against human NCI-H460 cells xenografted in Crl:Nu-Foxnl nu mouse assessed as inhibition of tumour growth at total effective dose of 10 mg/kg, iv measured on day 21; assay type: functional; conditions: 504 h, time 21 day, read-out: TGI
[36] = tested on: MDA-MB-231; assay: Antitumour activity against human MDA-MB-231 cells xenografted in Crl:Nu-Foxnl nu mouse assessed as inhibition of tumour growth at total effective dose of 8 mg/kg, iv measured on day 50; assay type: functional; conditions: MDA-MB-231, iv, 1200 h, time 50 day, read-out: TGI
[37] = tested on: PANC-1; assay: Antitumour activity against human PANC-1 cells xenografted in Crl:Nu-Foxnl nu mouse assessed as inhibition of tumour growth at total effective dose of 120 mg/kg, iv measured on day 51; assay type: functional; conditions: PANC-1, iv, 1224 h, time 51 day, read-out: TGI
[38] = tested on: NCI-H460; assay: Antitumour activity against human NCI-H460 cells xenografted in Crl:Nu-Foxnl nu mouse assessed as inhibition of tumour growth at total effective dose of 60 mg/kg, ip measured on day 14; assay type: functional; conditions: 336 h, time 14 day, read-out: TGI

Cc1ccc([N+](=O)[O-])c2c(NCCCN3CCN(CCCNc4ccc([N+](=O)[O-])c5[nH]c6ccccc6c(=O)c45)CC3)c3ccccc3nc12
IC50 [1]: 41 nM | IC50 [2]: 362 nM | IC50 [3]: 40 nM | IC50 [4]: 83 nM | IC50 [5]: 63 nM | IC50 [6]: 130 nM | IC50 [7]: 108 nM | T/C [8]: 550% | inhibition in vivo at 60 mg/kg [9]: 24% | inhibition in vivo at 30 mg/kg [10]: 72% | inhibition in vivo at 10 mg/kg [11]: 27% | inhibition in vivo at 8 mg/kg [12]: 30% | ΔTm [13]: 19.4 °C | ΔTm [14]: 8.7 °C | ΔTm [15]: 21.6 °C | ΔTm [16]: 2.6 °C

Cc1ccc([N+](=O)[O-])c2c(NCCCN(C)CCCNc3ccc([N+](=O)[O-])c4[nH]c5ccccc5c(=O)c34)c3ccccc3nc12
IC50 [1]: 44 nM | IC50 [17]: 230 nM | IC50 [3]: 55 nM | IC50 [4]: 74 nM | IC50 [5]: 54 nM | IC50 [6]: 110 nM | T/C [18]: 1000% | inhibition in vivo at 100 mg/kg [19]: 52% | ΔTm [13]: 18.8 °C | ΔTm [14]: 6.8 °C | ΔTm [15]: 28.5 °C | ΔTm [16]: 2.4 °C

Cc1ccc(NCCNCCNc2c3ccccc3nc3cccc([N+](=O)[O-])c23)c2c(=O)c3ccccc3[nH]c12
IC50 [1]: 243 nM | IC50 [20]: 250 nM | IC50 [17]: 138 nM | IC50 [21]: 137 nM | IC50 [6]: 212 nM | T/C [22]: 350% | inhibition in vivo at 40 mg/kg [23]: 61% | inhibition in vivo at 16 mg/kg [24]: 75% | inhibition in vivo at 14 mg/kg [25]: 46% | ΔTm [13]: 28.5 °C | ΔTm [14]: 37.7 °C | ΔTm [15]: 28.1 °C

Cc1ccc([N+](=O)[O-])c2c(NCCCN3CCN(CCCNc4ccc(C)c5[nH]c6ccc(O)cc6c(=O)c45)CC3)c3ccccc3nc12
IC50 [1]: 46 nM | IC50 [20]: 300 nM | IC50 [17]: 61 nM | IC50 [3]: 40 nM | IC50 [4]: 47 nM | IC50 [21]: 48 nM | IC50 [7]: 67 nM | T/C [26]: 300% | inhibition in vivo at 48 mg/kg [27]: 25% | inhibition in vivo at 30 mg/kg [28]: 6%

Cc1ccc(NCCCN2CCN(CCCNc3c4ccccc4nc4cccc([N+](=O)[O-])c34)CC2)c2c(=O)c3cc(O)ccc3[nH]c12
IC50 [1]: 20 nM | IC50 [20]: 84 nM | IC50 [2]: 48 nM | IC50 [17]: 23 nM | IC50 [3]: 5 nM | IC50 [4]: 19 nM | IC50 [5]: 9.5 nM | IC50 [29]: 113 nM | IC50 [21]: 28 nM | IC50 [6]: 27 nM | IC50 [7]: 16 nM | IC50 [30]: 59 nM | IC50 [31]: 79 nM | T/C [32]: 250% | inhibition in vivo at 32 mg/kg [33]: 90% | inhibition in vivo at 8 mg/kg [34]: 51% | inhibition in vivo at 10 mg/kg [35]: 42% | inhibition in vivo at 8 mg/kg [36]: 30% | inhibition in vivo at 120 mg/kg [37]: 75% | ΔTm [13]: 17.9 °C | ΔTm [14]: 7.3 °C | ΔTm [15]: 27.6 °C | ΔTm [16]: 1.7 °C

Cc1ccc([N+](=O)[O-])c2c(NCCCNCCCNc3ccc(C)c4[nH]c5ccccc5c(=O)c34)c3ccccc3nc12
IC50 [1]: 129 nM | IC50 [20]: 213 nM | IC50 [17]: 1300 nM | IC50 [3]: 67 nM | IC50 [4]: 85 nM | IC50 [5]: 105 nM | IC50 [6]: 162 nM | T/C [18]: 1300% | inhibition in vivo at 60 mg/kg [38]: 25%
